Data on one compound can be found in patent US20250027930A1, “SMALL MOLECULES FOR REPROGRAMING ANTI-TUMOR IMMUNITY OF T CELLS” (THE SCRIPPS RESEARCH INSTITUTE, priority 2021, published 2025).

SMILES strings stand for the structures.

One assay concerns OT-1 cells. In words: OT-I-Tcf7GFP splenocyte screen: proliferation and Tim3−TCF-1+ ratio. It is filed as cell-based, mouse. As to conditions: Day7, 50 mM.
For a further assay, the system named is P14 cells. Kind of assay: P14 splenocyte in vitro activation, re-stimulation and expansion. The following applies: 50 mM; for Fold of proliferation, Normalized to W/O: P14 cells. It is filed as cell-based, mouse.
A further assay concerns B16-OVA tumor. It is filed as in vivo, mouse. Here is the method:
(§1) Naïve splenocytes from OT-1 mice were stimulated in vitro with OVA257-264 (500 nM) and IL-2 (60 IU/mL) in the presence or absence of an added compound for 3 days at a density of 1 million/mL (100 uL/well in 96/well plate), then expanded for 4 days. On day 7, PD-1, Tim3 and TCF-1 expressions were assessed by flow cytometry by staining cells with anti-CD8a (PerCP-Cy5.5), anti-Tim3 (BV421) and anti-TCF-1 (AF488) antibodies. For adoptive transfer, 0.6M B16-OVA cells (6×10^5) were inoculated subcutaneously 3 to 5 days before transfer in C57BL/6. On the day of adoptive transfer, mice were irradiated with 5 Gy X-ray, randomized according to tumor size, and intravenously injected with 0.2-0.3M of CD8+OT-1 T cells (2×10^5) expanded under different conditions, followed by administration of 50000 IU IL-2 every 12 h for four days. In the control group, mice were injected with cell-free vehicle only. For assessment of adoptive transfer of OT-1 CD8+ T cells activated and expanded by contacting the cells with fructose, on day 9 after transfer, anti-PD-1 (100 ug/mouse) was administered to the mice that had received T cell transfer. For assessment of adoptive transfer of OT-1 CD8+ T cells activated and expanded by contacting cells with Neu5Ac, on day 14 and day 21 after transfer, anti-PD-1 (100 ug/mouse) was administered to the mice that had received T cell transfer. The tumor growth was monitored every 3 to 4 days by measuring tumor size. Percent survival was also monitored and recorded within a period of 40 days post treatment. To evaluate tumor infiltrating OT-1 T cells, 0.6M B16-OVA cells (6×10^5) were inoculated subcutaneously 3 to 5 days before transfer in C57BL/6. On the day of adoptive transfer, mice were irradiated with 5 Gy X-ray, randomized according to tumor size, and intravenously injected with 0.2-0.3M of CD8+OT-1 T cells (2×10^5) expanded under different conditions, followed by administration of 50000 IU IL-2 every 12 h for four days. Tumors were then isolated and assessed for percentage of OT-I T cells from the total CD8+ T cells and OT-1 T cell number per gram of tumor tissue. To evaluate apoptosis, Naïve OT-1 splenocytes were stimulated by OVA257-264 (500 nM) without IL-2 in the presence of absence of sugars for 5 days followed by using Annexin V Apoptosis detection kit (Biolegend). […] To evaluate other cellular characteristics, naïve OT-1 splenocytes were stimulated by OVA257-264 (500 nM) with IL-2 (60 IU/mL) in the presence or absence of sugars for 7 or 8 days. On day 7 or 8 cells were taken and analyzed by assessment of ROS, NADPH/NADP+ ratio, and GSH/GSSG ratio.

For assay [1], the system named is OT-1 splenocytes. In words: Apoptosis (Annexin V) and IL-2 production of OT-1 splenocytes stimulated without IL-2. As to conditions: OVA257-264 500 nM without IL-2, 5 days. The format is cell-based, mouse. The protocol:
as §1

In assay [2] the test system is OT-1 splenocytes. Kind of assay: ROS, NADPH/NADP+ ratio and GSH/GSSG ratio of OT-1 splenocytes. The following applies: day 7 or 8, with IL-2; vs T cells not treated with sugar. It is filed as cell-based, mouse. Here is the method: as §1
Assay [3] has as its system MC38 TSA-reactive CD8+ TILs. In words: Rapid expansion of TSA-reactive CD8+ TILs from MC38 tumors. It is filed as cell-based, mouse. The protocol:
Sugars were added at the beginning or during the expansion of the TILs, and kept till the end of expansion. On expansion day 9, phenotypes of the expanded T cells were assessed, and the cells were used for adoptive transfer (FIG. 6E). For adoptive transfer, 0.5 million cells (B16-OVA or MC38) were inoculated subcutaneously on each mouse on day 0, Listeria monocytogenes-OVA (LM-OVA) infection 0.5 million CFU/mice on day 1, and blood analysis was recorded on day 7.

The next assay deals with TILs from B16-OVA tumor. It is filed as cell-based, mouse. The following applies: day 7 rapid expansion. Here is the method:
TILs from B16-OVA tumor were isolated on day10 after inoculation, and Tim-3^−TCF/GFP^+ and Tim-3^+TCF/GFP^− in tetramer positive population were collected by live cell sorting (FIG. 15A). Phenotype features of Tim-3^−TCF/GFP^+ (FIG. 15B) and Tim-3^+TCF/GFP^− (FIG. 15C) were analyzed on day 7 after rapid expansion with feeder cells (TILs/feeder cell: 1/200) in the presence or absence of sugars.
To investigate which population that sugars mainly changed on T cells, B16-OVA cancer cells (7×10^5 cells) were subcutaneously inoculated into the left or right flank of TCF7^GFP mice expressing an EGFP fluorescent reporter from the endogenous Tcf7 locus, which enable us to track the expression of TCF-1 in live cells.

In a further assay the test system is OT-I splenocytes. In words: OT-I splenocyte culture with purine/pyrimidine pathway compounds. The following applies: CD8+ T cells. It is filed as cell-based, mouse. Here is the method:
We therefore tested if purine and pyrimidine nucleotides have similar effects as N-Acetylneuraminic acid to help maintain less differentiated phenotypes of T cells during expansion. OT-I splenocytes were cultured with 500 nM […] peptide (OVA257-264) for three days at initial cell density of 1×10^6/mL to activate and expand the CD8+ T cell population. Different concentrations of the products or intermediates in purine or pyrimidine de novo synthesis pathways were added on day 3. The tested compounds include, e.g., guanosine, deoxyguanosine, adenosine, deoxyadenosine, inosine, xanthosine, orotidine, uridine, cytidine, deoxycytidine, thymidine, deoxythymidine, 5-Aminoimidazole-4-carboxamide ribonucleotide (AICAR), orotate, and dihydroorotate. The phenotype of expanded T cells were analyzed on day 5.

Another assay deals with HA-28z CAR T cells. In words: HA-28z (GD2) CAR T cell expansion with sugars. The following applies: 50 mM, 14 days; both CD8^+ and CD4^+ CAR T cells.

Turning to `CC(=O)N[C@H]1[C@H]([C@H](O)[C@H](O)CO)OC(O)(C(=O)O)C[C@@H]1O` (stereo partly drawn) [Neu5Ac, N-acetylneuraminic acid], the “Tim3^−TCF-1^+ ratio of CD8^+ T cells (%)” value in the assay on OT-1 cells (w/o 2.6) was 59.6%; with P14 cells (Day6, w/o 55.0) it was 97.4%; in the assay with P14 cells (Day9, w/o 3.5), 71.3%. The activity at 50000 µM in the assay with OT-1 cells (Mus musculus, Splenocyte, 168 h, OT-1 cells, read-out: Proliferation fold, Normalized to W/O) was determined as 143%. Besides, the “Fold of proliferation, Normalized to W/O” value with P14 cells (Day6) came to 2.29 fold; with P14 cells (Day9), 1.40 fold. The “capabilities to control tumor growth by way of tumor volume and survival rate” value in the assay on B16-OVA tumor (treated OT-1 T cells used with anti-PD-1 antibody treatment, vs untreated T cells) is “significantly better”. In addition, the “tumor infiltrating OT-1 T cell numbers” value in the assay with B16-OVA tumor (treated T cells transferred to B16-OVA mice) is recorded as “increased”. In the assay with OT-1 splenocytes [1] (vs T cells not treated with sugar), the “viability and apoptotic characteristics” value is “enhanced viability and differential apoptotic characteristics”. Moreover, the “production of IL-2” value in the assay with OT-1 splenocytes [1] (vs no sugar) is on record as “significantly greater”. Moreover, in the assay with OT-1 splenocytes [2], the GSH/GSSG ratio entry is “greater”. The “NADPH/NADP+ ratio” value in the assay with OT-1 splenocytes [2] is “greater”. The ROS result in the assay with OT-1 splenocytes [2] is listed as “significantly less”. Moreover, the “cell surface anti-CLA (Cutaneous Lymphocyte-associated Antigen) staining” value in assay [3] is recorded as “significant increase”. The “reversal of sorted Tim-3^+TCF-GFP^− back to Tim-3^−TCF-GFP^+ phenotype” value with TILs from B16-OVA tumor is on record as “partially reverse”. Besides, the “maintenance of progenitor exhausted features of sorted Tim-3-TCF-GFP^+ TILs” value in the assay with TILs from B16-OVA tumor (vs without sugars) is “maintain more Tim-3^−TCF/GFP^+ cells”. The “purine and pyrimidine biosynthesis end products and certain intermediates” value in the assay on OT-I splenocytes is on record as “upregulated”. In the assay on HA-28z CAR T cells, the “CAR T cells proliferated times faster than cells expanded without sugars” value was 1.5-2 times.
